Source: US11407737B2, “Inhibitors of RAF kinases” (Kinnate Biopharma Inc., priority 2020, dated 2022)
Structures can show the parent of a compound that is named as a salt.

Target: human RAF1 (Homo sapiens (Human), UniProt P04049)
Assay: Protein kinase assay (radiometric 33P-ATP, MEK1 (K97R) substrate), RAF-1
Format: biochemical
Conditions: human MEK1 (K97R) substrate 3 micromolar, ATP 10 micromolar; 10-dose, 3-fold serial dilution starting at 10 micromolar; read-out: RAF-1 IC50
Experimental: Example 1: Kinase Assay Protocol
Assay platform was used to measure kinase/inhibitor interactions as described previously (Anastassiadis et al., 2011). In brief, for each reaction, kinase and substrate were mixed in a buffer containing 20 mM HEPES (pH 7.5), 10 mM MgCl2, 1 mM EGTA, 0.02% Brij35, 0.02 mg/mL BSA, 0.1 mM Na3VO4, 2 mM DTT, and 1% DMSO. All compounds were solubilized in DMSO. Compounds were then added to each reaction mixture via acoustic dispense using an ECHO 550 nanoliter dispenser. For human RAF1 testing, human MEK1 (K97R) was used as a substrate at a concentration of 3 micromolar, with a final ATP concentration of 10 micromolar. For human BRAF testing, human MEK1 (K97R) was used as a substrate at 1 micromolar concentration, with a final ATP concentration of 25 micromolar. […] After a 20-min incubation, ATP (Sigma-Aldrich, St. Louis, Mo. 63178) and [g33P] ATP (specific activity 10 microCi/microliter) purchased at PerkinElmer (Boston, Mass., 02118 Cat #BLU 003H250UC) were added at a final total concentration of […]. Reactions were carried out at room temperature for 2 hr and spotted onto P81 ion exchange cellulose chromatography paper (Reaction Biology). Filter paper was washed in 0.75% phosphoric acid to remove unincorporated ATP. The percent remaining kinase activity relative to a vehicle-containing (DMSO) kinase reaction was calculated for each kinase/inhibitor pair. IC50 values were calculated using Prism 5 (GraphPad).

Sequence of human RAF1 (P04049 whole entry): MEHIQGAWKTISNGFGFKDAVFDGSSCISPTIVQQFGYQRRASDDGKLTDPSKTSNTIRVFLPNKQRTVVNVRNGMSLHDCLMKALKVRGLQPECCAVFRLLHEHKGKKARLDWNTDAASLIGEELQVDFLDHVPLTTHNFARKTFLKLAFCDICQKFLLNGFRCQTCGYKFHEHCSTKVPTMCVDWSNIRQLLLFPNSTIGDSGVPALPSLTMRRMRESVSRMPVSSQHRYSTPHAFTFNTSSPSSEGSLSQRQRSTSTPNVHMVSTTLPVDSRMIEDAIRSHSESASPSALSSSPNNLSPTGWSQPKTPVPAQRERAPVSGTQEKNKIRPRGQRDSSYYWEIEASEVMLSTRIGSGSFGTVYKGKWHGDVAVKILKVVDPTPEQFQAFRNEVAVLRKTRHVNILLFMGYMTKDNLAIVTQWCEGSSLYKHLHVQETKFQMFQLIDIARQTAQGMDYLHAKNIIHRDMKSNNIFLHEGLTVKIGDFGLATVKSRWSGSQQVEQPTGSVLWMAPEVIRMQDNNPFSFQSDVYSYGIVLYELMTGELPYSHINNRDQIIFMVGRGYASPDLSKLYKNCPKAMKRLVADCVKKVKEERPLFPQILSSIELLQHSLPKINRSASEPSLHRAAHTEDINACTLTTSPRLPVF

## Cc1ccc(NC(=O)N2CC[C@@H](CC(F)(F)F)C2)cc1-c1cc(C(=O)NC[C@H](C)O)nc(N2CCOCC2)c1 [Example 7, N-[(2S)-2-hydroxypropyl]-4-[2-methyl-5-[(3S)-3-(2,2,2-trifluoroethyl)pyrrolidine-1-carbonylamino]phenyl]-6-(morpholin-4-yl)pyridine-2-carboxamide]
  IC50: < 1 nM

## Cc1ccc(NC(=O)N2CC[C@@H](CC(F)(F)F)C2)cc1-c1cc(CCCO)nc(N2CCOCC2)c1 [Example 24, (3S)—N-[3-[2-(3-hydroxypropyl)-6-(morpholin-4-yl)pyridin-4-yl]-4-methylphenyl]-3-(2,2,2-trifluoroethyl)pyrrolidine-1-carboxamide]
  IC50: < 1 nM

## Cc1cc(-c2cc(-c3cc(NC(=O)N4CC[C@@H](CC(F)(F)F)C4)ccc3C)cc(N3CCOCC3)n2)n(C)n1 [Example 50, (3S)—N-[3-[2-(2,5-dimethylpyrazol-3-yl)-6-(morpholin-4-yl)pyridin-4-yl]-4-methylphenyl]-3-(2,2,2-trifluoroethyl)pyrrolidine-1-carboxamide]
  IC50: 1 to 10 nM

## Cc1ccc(NC(=O)N2CC[C@@H](CC(F)(F)F)C2)cc1-c1cc(C(=O)NCCO)nc(N2CCOCC2)c1 [Example 4, N-(2-hydroxyethyl)-4-[2-methyl-5-[(3S)-3-(2,2,2-trifluoroethyl)pyrrolidine-1-carbonylamino]phenyl]-6-(morpholin-4-yl)pyridine-2-carboxamide]
  IC50: 1 to 10 nM

## Cc1ccc(NC(=O)N2CC[C@@H](CC(F)(F)F)C2)cc1-c1cc(-c2cnn(C)c2)nc(N2CCOCC2)c1 [Example 22, (3S)—N-[4-methyl-3-[2-(1-methylpyrazol-4-yl)-6-(morpholin-4-yl)pyridin-4-yl]phenyl]-3-(2,2,2-trifluoroethyl)pyrrolidine-1-carboxamide]
  IC50: < 1 nM

## Cc1ccc(NC(=O)N2CC[C@@H](CC(F)(F)F)C2)cc1-c1cc(C2CCN(C)C2)nc(N2CCOCC2)c1 (stereo partly drawn) [Example 38, (3S)—N-(4-methyl-3-(2-(1-methylpyrrolidin-3-yl)-6-morpholinopyridin-4-yl)phenyl)-3-(2,2,2-trifluoroethyl)pyrrolidine-1-carboxamide formate]
  IC50: 1 to 10 nM

## Cc1ccc(NC(=O)N2CC[C@@H](CC(F)(F)F)C2)cc1-c1cc(-c2ccnc(O)c2)nc(N2CCOCC2)c1 [Example 30, (3S)—N-[3-[2-hydroxy-6-(morpholin-4-yl)-[2,4-bipyridin]-4-yl]-4-methylphenyl]-3-(2,2,2-trifluoroethyl)pyrrolidine-1-carboxamide]
  IC50: 1 to 10 nM

## Cc1ccc(NC(=O)N2CCO[C@H](C(F)(F)F)C2)cc1-c1cc(-c2cnn(C)c2)nc(N2CCOCC2)c1 [Example 62, (2S)—N-{4-methyl-3-[2-(1-methylpyrazol-4-yl)-6-(morpholin-4-yl)pyridin-4-yl]phenyl}-2-(trifluoromethyl)morpholine-4-carboxamide]
  IC50: 1 to 10 nM

## Cc1cc(F)c(NC(=O)N2CCC(C(C)(C)F)C2)cc1-c1cc(-c2cnn(C)c2)nc(N2CCOCC2)c1 (centres unmarked) [Example 85, N-{2-fluoro-4-methyl-5-[2-(1-methylpyrazol-4-yl)-6-(morpholin-4-yl)pyridin-4-yl]phenyl}-3-(2-fluoropropan-2-yl)pyrrolidine-1-carboxamide]
  IC50: 1 to 10 nM

## Cc1ccc(NC(=O)N2CC[C@@H](CC(F)(F)F)C2)cc1-c1cc(-c2cc(N)n(C)n2)nc(N2CCOCC2)c1 [Example 44, (3S)-N-[3-[2-(5-amino-1-methylpyrazol-3-yl)-6-(morpholin-4-yl)pyridin-4-yl]-4-methylphenyl]-3-(2,2,2-trif1uoroethyl)pyrrolidine-1-carboxamide]
  IC50: 1 to 10 nM

## Cc1cc(F)c(NC(=O)N2CC[C@H](C(F)(F)F)C2)cc1-c1cc(-c2cnn(C)c2)nc(N2CCOCC2)c1 [Example 76, (3S)—N-{2-fluoro-4-methyl-5-[2-(1-methylpyrazol-4-yl)-6-(morpholin-4-yl)pyridin-4-yl]phenyl}-3-(trifluoromethyl)pyrrolidine-1-carboxamide]
  IC50: < 1 nM

## Cc1ccc(NC(=O)N2CC[C@@H](CC(F)(F)F)C2)cc1-c1cc(C(F)F)nc(N2CCOCC2)c1 [Example 57, (3S)—N-{3-[2-(difluoromethyl)-6-(morpholin-4-yl)pyridin-4-yl]-4-methylphenyl}-3-(2,2,2-trifluoroethyl)pyrrolidine-1-carboxamide]
  IC50: 1 to 10 nM

## Cc1ccc(NC(=O)N2CC[C@@H](CC(F)(F)F)C2)cc1-c1cc(-c2cc(C)n(C)n2)nc(N2CCOCC2)c1 [Example 52, (3S)—N-[3-[2-(1,5-dimethylpyrazol-3-yl)-6-(morpholin-4-yl)pyridin-4-yl]-4-methylphenyl]-3-(2,2,2-trifluoroethyl)pyrrolidine-1-carboxamide]
  IC50: 1 to 10 nM

## Cc1cc(F)c(NC(=O)N2CC=C(C(F)(F)F)C2)cc1-c1cc(-c2ccnn2C)nc(N2CCOCC2)c1 [Example 73, N-{2-fluoro-4-methyl-5-[2-(2-methylpyrazol-3-yl)-6-(morpholin-4-yl)pyridin-4-yl]phenyl}-3-(trifluoromethyl)-2,5-dihydropyrrole-1-carboxamide]
  IC50: < 1 nM

## Cc1ccc(NC(=O)N2CC[C@@H](CC(F)(F)F)C2)cc1-c1cc(-c2ccnc(C(F)F)c2)nc(N2CCOCC2)c1 [Example 46, (3S)—N-[3-[2′-(difluoromethyl)-6-(morpholin-4-yl)-[2,4′-bipyridin]-4-yl]-4-methylphenyl]-3-(2,2,2-trifluoroethyl)pyrrolidine-1-carboxamide]
  IC50: 1 to 10 nM

## Cc1ccc(NC(=O)N2CC[C@@H](CC(F)(F)F)C2)cc1-c1cc(C2=CCN(C)C2)nc(N2CCOCC2)c1 [Example 35, (3S)—N-[4-methyl-3-[2-(1-methyl-2,5-dihydropyrrol-3-yl)-6-(morpholin-4-yl)pyridin-4-yl]phenyl]-3-(2,2,2-trifluoroethyl)pyrrolidine-1-carboxamide]
  IC50: 1 to 10 nM

## Cc1cc(F)c(NC(=O)N2CC[C@@H](CC(F)(F)F)C2)cc1-c1cc(C2CC2)nc(N2CCOCC2)c1 [Example 71, (3S)—N-{5-[2-cyclopropyl-6-(morpholin-4-yl)pyridin-4-yl]-2-fluoro-4-methylphenyl}-3-(2,2,2-trifluoroethyl)pyrrolidine-1-carboxamide]
  IC50: < 1 nM

## Cc1ccc(NC(=O)N2CC[C@@H](CC(F)(F)F)C2)cc1-c1cc(C(N)=O)nc(N2CCOCC2)c1 [Example 2, 4-[2-methyl-5-[(3S)-3-(2,2,2-trifluoroethyl)pyrrolidine-1-carbonylamino]phenyl]-6-(morpholin-4-yl)pyridine-2-carboxamide]
  IC50: 1 to 10 nM

## Cc1ccc(NC(=O)N2CC[C@@H](CC(F)(F)F)C2)cc1-c1cc(CCO)nc(N2CCOCC2)c1 [Example 32, (3S)—N-[3-[2-(2-hydroxyethyl)-6-(morpholin-4-yl)pyridin-4-yl]-4-methylphenyl]-3-(2,2,2-trifluoroethyl)pyrrolidine-1-carboxamide]
  IC50: 1 to 10 nM

## Cc1ccc(NC(=O)N2CC[C@@H](CC(F)(F)F)C2)cc1-c1cc(C(=O)N[C@@H](C)CO)nc(N2CCOCC2)c1 [Example 8, N-[(2S)-1-hydroxypropan-2-yl]-4-[2-methyl-5-[(3S)-3-(2,2,2-trifluoroethyl)pyrrolidine-1-carbonylamino]phenyl]-6-(morpholin-4-yl)pyridine-2-carboxamide]
  IC50: < 1 nM

## Cc1ccc(NC(=O)N2CC[C@@H](CC(F)(F)F)C2)cc1-c1cc(-c2cscn2)nc(N2CCOCC2)c1 [Example 42, (3S)—N-[4-methyl-3-[2-(morpholin-4-yl)-6-(1,3-thiazol-4-yl)pyridin-4-yl]phenyl]-3-(2,2,2-trifluoroethyl)pyrrolidine-1-carboxamide]
  IC50: 1 to 10 nM

## Cc1ccc(NC(=O)N2CC[C@@H](CC(F)(F)F)C2)cc1-c1cc(CC[C@@H](C)O)nc(N2CCOCC2)c1 [Example 12, (3S)—N-(3-[2-[(3R)-3-hydroxybutyl]-6-(morpholin-4-yl)pyridin-4-yl]-4-methylphenyl)-3-(2,2,2-trifluoroethyl)pyrrolidine-1-carboxamide]
  IC50: < 1 nM

## Cc1ccc(NC(=O)N2CC[C@@H](CC(F)(F)F)C2)cc1-c1cc(/C=C/CO)nc(N2CCOCC2)c1 [Example 23, (3S)—N-(3-[2-[(1E)-3-hydroxyprop-1-en-1-yl]-6-(morpholin-4-yl)pyridin-4-yl]-4-methylphenyl)-3-(2,2,2-trifluoroethyl)pyrrolidine-1-carboxamide]
  IC50: < 1 nM

## Cc1ccc(NC(=O)N2CC[C@@H](CC(F)(F)F)C2)cc1-c1cc(C#C[C@@H](C)O)nc(N2CCOCC2)c1 [Example 11, (3S)—N-(3-[2-[(3R)-3-hydroxybut-1-yn-1-yl]-6-(morpholin-4-yl)pyridin-4-yl]-4-methylphenyl)-3-(2,2,2-trifluoroethyl)pyrrolidine-1-carboxamide]
  IC50: 1 to 10 nM

## Cc1cc(F)c(NC(=O)N2CC[C@@H](C(C)(C)C)C2)cc1-c1cc(-c2cnn(C)c2)nc(N2CCOCC2)c1 (single isomer, unassigned) [Example 82]
  IC50: 1 to 10 nM

## Cc1ccc(NC(=O)N2CC[C@@H](CC(F)(F)F)C2)cc1-c1cc(-c2c[nH]nc2C)nc(N2CCOCC2)c1 [Example 47, (3S)—N-[4-methyl-3-[2-(3-methyl-1H-pyrazol-4-yl)-6-(morpholin-4-yl)pyridin-4-yl]phenyl]-3-(2,2,2-trifluoroethyl)pyrrolidine-1-carboxamide]
  IC50: 1 to 10 nM
